Test results: the NIST ThermoML archive (doi:10.1021/je8003832)
± gives the expanded uncertainty stated by the source.

Assay: xn = mol fraction of the nth substance listed
Settings: 101 kPa, Liquid

## CCCCn1cc[n+](C)c1.O=S(=O)([O-])C(F)(F)F [1-butyl-3-methylimidazolium trifluoromethanesulfonate] + O
303.15 K, x2 = 0
  mass density: 1298.4 ± 4 kg/m3
  viscosity: 63.19 ± 4.1 mPa·s
303.15 K, x2 = 0.1032
  mass density: 1294.5 ± 3.9 kg/m3
  viscosity: 45.7 ± 3 mPa·s
303.15 K, x2 = 0.1939
  mass density: 1291.2 ± 3.9 kg/m3
  viscosity: 35.41 ± 2.3 mPa·s
303.15 K, x2 = 0.2987
  mass density: 1286.5 ± 3.8 kg/m3
  viscosity: 28.97 ± 1.9 mPa·s
303.15 K, x2 = 0.3999
  mass density: 1280.8 ± 3.7 kg/m3
  viscosity: 23.25 ± 1.6 mPa·s
303.15 K, x2 = 0.501
  mass density: 1272.8 ± 3.6 kg/m3
  viscosity: 19.19 ± 1.3 mPa·s
303.15 K, x2 = 0.5923
  mass density: 1263 ± 3.6 kg/m3
  viscosity: 15.47 ± 1.1 mPa·s
303.15 K, x2 = 0.7023
  mass density: 1246.2 ± 3.5 kg/m3
  viscosity: 11.56 ± 0.84 mPa·s
303.15 K, x2 = 0.799
  mass density: 1220.1 ± 3.4 kg/m3
  viscosity: 8.206 ± 0.63 mPa·s
303.15 K, x2 = 0.901
  mass density: 1164.6 ± 3.3 kg/m3
  viscosity: 4.552 ± 0.4 mPa·s
308.15 K, x2 = 0
  mass density: 1294.9 ± 4.1 kg/m3
  viscosity: 51.73 ± 0.56 mPa·s
308.15 K, x2 = 0.1032
  mass density: 1291 ± 4 kg/m3
  viscosity: 37.23 ± 2.4 mPa·s
308.15 K, x2 = 0.1939
  mass density: 1287.7 ± 4 kg/m3
  viscosity: 29.27 ± 1.9 mPa·s
308.15 K, x2 = 0.2987
  mass density: 1283 ± 3.9 kg/m3
  viscosity: 24.28 ± 1.6 mPa·s
308.15 K, x2 = 0.3999
  mass density: 1277.3 ± 3.8 kg/m3
  viscosity: 19.95 ± 1.4 mPa·s
308.15 K, x2 = 0.501
  mass density: 1269.3 ± 3.7 kg/m3
  viscosity: 16.8 ± 1.2 mPa·s
308.15 K, x2 = 0.5923
  mass density: 1259.5 ± 3.7 kg/m3
  viscosity: 13.2 ± 0.94 mPa·s
308.15 K, x2 = 0.7023
  mass density: 1242.5 ± 3.6 kg/m3
  viscosity: 10.13 ± 0.75 mPa·s
308.15 K, x2 = 0.799
  mass density: 1216.6 ± 3.5 kg/m3
  viscosity: 6.932 ± 0.55 mPa·s
308.15 K, x2 = 0.901
  mass density: 1160.6 ± 3.3 kg/m3
  viscosity: 3.869 ± 0.34 mPa·s
313.15 K, x2 = 0
  mass density: 1291.4 ± 4.2 kg/m3
  viscosity: 42.46 ± 2.8 mPa·s
313.15 K, x2 = 0.1032
  mass density: 1287.5 ± 4.2 kg/m3
  viscosity: 30.93 ± 2 mPa·s
313.15 K, x2 = 0.1939
  mass density: 1284.1 ± 4.1 kg/m3
  viscosity: 24.46 ± 1.6 mPa·s
313.15 K, x2 = 0.2987
  mass density: 1279.4 ± 4 kg/m3
  viscosity: 20.53 ± 1.4 mPa·s
313.15 K, x2 = 0.3999
  mass density: 1273.8 ± 3.9 kg/m3
  viscosity: 16.88 ± 1.2 mPa·s
313.15 K, x2 = 0.501
  mass density: 1265.7 ± 3.9 kg/m3
  viscosity: 13.95 ± 0.99 mPa·s
313.15 K, x2 = 0.5923
  mass density: 1255.9 ± 3.8 kg/m3
  viscosity: 11.21 ± 0.82 mPa·s
313.15 K, x2 = 0.7023
  mass density: 1238.8 ± 3.7 kg/m3
  viscosity: 8.605 ± 0.66 mPa·s
313.15 K, x2 = 0.799
  mass density: 1212.9 ± 3.6 kg/m3
  viscosity: 5.989 ± 0.5 mPa·s
313.15 K, x2 = 0.901
  mass density: 1156.7 ± 3.4 kg/m3
  viscosity: 3.376 ± 0.3 mPa·s
318.15 K, x2 = 0
  mass density: 1287.8 ± 4.3 kg/m3
  viscosity: 35.17 ± 2.3 mPa·s
318.15 K, x2 = 0.1032
  mass density: 1283.8 ± 4.3 kg/m3
  viscosity: 25.04 ± 1.7 mPa·s
318.15 K, x2 = 0.1939
  mass density: 1280.4 ± 4.2 kg/m3
  viscosity: 20.79 ± 1.4 mPa·s
318.15 K, x2 = 0.2987
  mass density: 1275.8 ± 4.1 kg/m3
  viscosity: 17.55 ± 1.2 mPa·s
318.15 K, x2 = 0.3999
  mass density: 1270.2 ± 4 kg/m3
  viscosity: 14.38 ± 1 mPa·s
318.15 K, x2 = 0.501
  mass density: 1262 ± 4 kg/m3
  viscosity: 12 ± 0.87 mPa·s
318.15 K, x2 = 0.5923
  mass density: 1252.2 ± 3.9 kg/m3
  viscosity: 9.907 ± 0.74 mPa·s
318.15 K, x2 = 0.7023
  mass density: 1234.9 ± 3.8 kg/m3
  viscosity: 7.465 ± 0.59 mPa·s
318.15 K, x2 = 0.799
  mass density: 1208.9 ± 3.7 kg/m3
  viscosity: 5.339 ± 0.45 mPa·s
318.15 K, x2 = 0.901
  mass density: 1153 ± 3.5 kg/m3
  viscosity: 3.156 ± 0.28 mPa·s
323.15 K, x2 = 0
  mass density: 1284.4 ± 4.5 kg/m3
  viscosity: 29.55 ± 2 mPa·s
323.15 K, x2 = 0.1032
  mass density: 1280.3 ± 4.4 kg/m3
  viscosity: 21.51 ± 1.5 mPa·s
323.15 K, x2 = 0.1939
  mass density: 1276.8 ± 4.3 kg/m3
  viscosity: 18.11 ± 1.2 mPa·s
323.15 K, x2 = 0.2987
  mass density: 1272.2 ± 4.2 kg/m3
  viscosity: 15.17 ± 1.1 mPa·s
323.15 K, x2 = 0.3999
  mass density: 1266.5 ± 4.1 kg/m3
  viscosity: 12.62 ± 0.91 mPa·s
323.15 K, x2 = 0.501
  mass density: 1258.3 ± 4.1 kg/m3
  viscosity: 10.42 ± 0.77 mPa·s
323.15 K, x2 = 0.5923
  mass density: 1248.5 ± 4 kg/m3
  viscosity: 8.516 ± 0.65 mPa·s
323.15 K, x2 = 0.7023
  mass density: 1231.1 ± 3.9 kg/m3
  viscosity: 6.576 ± 0.53 mPa·s
323.15 K, x2 = 0.799
  mass density: 1205.2 ± 3.8 kg/m3
  viscosity: 4.57 ± 0.4 mPa·s
323.15 K, x2 = 0.901
  mass density: 1150 ± 3.6 kg/m3
  viscosity: 3.005 ± 0.27 mPa·s
333.15 K, x2 = 0
  mass density: 1277.4 ± 4.7 kg/m3
  viscosity: 21.61 ± 1.5 mPa·s
333.15 K, x2 = 0.1032
  mass density: 1273.1 ± 4.6 kg/m3
  viscosity: 16.07 ± 1.1 mPa·s
333.15 K, x2 = 0.1939
  mass density: 1269.7 ± 4.5 kg/m3
  viscosity: 13.51 ± 0.96 mPa·s
333.15 K, x2 = 0.2987
  mass density: 1265 ± 4.4 kg/m3
  viscosity: 11.61 ± 0.85 mPa·s
333.15 K, x2 = 0.3999
  mass density: 1259.3 ± 4.4 kg/m3
  viscosity: 9.88 ± 0.74 mPa·s
333.15 K, x2 = 0.501
  mass density: 1251.1 ± 4.3 kg/m3
  viscosity: 8.101 ± 0.63 mPa·s
333.15 K, x2 = 0.5923
  mass density: 1241.3 ± 4.2 kg/m3
  viscosity: 6.702 ± 0.54 mPa·s
333.15 K, x2 = 0.7023
  mass density: 1223.4 ± 4.1 kg/m3
  viscosity: 5.137 ± 0.44 mPa·s
333.15 K, x2 = 0.799
  mass density: 1197.2 ± 4 kg/m3
  viscosity: 3.618 ± 0.32 mPa·s
333.15 K, x2 = 0.901
  mass density: 1142.6 ± 3.8 kg/m3
  viscosity: 2.099 ± 0.19 mPa·s
343.15 K, x2 = 0
  mass density: 1270.5 ± 4.9 kg/m3
  viscosity: 16.38 ± 1.1 mPa·s
343.15 K, x2 = 0.1032
  mass density: 1266 ± 4.8 kg/m3
  viscosity: 12.44 ± 0.9 mPa·s
343.15 K, x2 = 0.1939
  mass density: 1262.6 ± 4.7 kg/m3
  viscosity: 10.54 ± 0.78 mPa·s
343.15 K, x2 = 0.2987
  mass density: 1257.9 ± 4.6 kg/m3
  viscosity: 9.137 ± 0.69 mPa·s
343.15 K, x2 = 0.3999
  mass density: 1252.2 ± 4.6 kg/m3
  viscosity: 7.816 ± 0.61 mPa·s
343.15 K, x2 = 0.501
  mass density: 1244 ± 4.5 kg/m3
  viscosity: 6.612 ± 0.53 mPa·s
343.15 K, x2 = 0.5923
  mass density: 1233.9 ± 4.4 kg/m3
  viscosity: 5.384 ± 0.46 mPa·s
343.15 K, x2 = 0.7023
  mass density: 1215.6 ± 4.3 kg/m3
  viscosity: 4.24 ± 0.37 mPa·s
343.15 K, x2 = 0.799
  mass density: 1189.3 ± 4.2 kg/m3
  viscosity: 2.936 ± 0.26 mPa·s
343.15 K, x2 = 0.901
  mass density: 1134.3 ± 4.1 kg/m3
  viscosity: 1.714 ± 0.16 mPa·s
